System: MOLT-4
Assay: Cell viability assay (tetrazolium-based MTS) in MOLT4 cells
Conditions: 48 h incubation
Procedure: Cancer cells from acute lymphoblastic leukemia (MOLT4) were incubated with increasing concentrations of compounds of Examples 1-9 for 48 h. Cell viability was measured by tetrazolium-based MTS assay. 5×10^4 to 1×10^5 suspension cells or 3×10^3 to 5×10^3 adherent cells were seeded and treated in 96-well plates for 48 h. The EC50 values of individual agents were calculated with GraphPad Prism.

[1] = Homo sapiens, MOLT-4, MOLT4 acute lymphoblastic leukemia cells

Row | SMILES | EC50 [1] | EC50 (MOLT4 acute lymphoblastic leukemia cells)
1 | Cc1c(-c2ccc(N3CCc4cccc(C(=O)Nc5nc6ccccc6s5)c4C3)nc2C(=O)O)cnn1CC12CC3CC(CC(C3)C1)C2 [A1331852, reference compound] | < 0.01 µM | –
2 | Cc1c(-c2ccc(N3CCc4cccc(C(=O)Nc5nc6ccccc6s5)c4C3)nc2C(=O)NS(=O)(=O)CCCn2cc(COCCOCCNc3cccc4c3C(=O)N(C3CCC(=O)NC3=O)C4=O)nn2)cnn1CC12CC3CC(CC(C3)C1)C2 (centres unmarked) [degrader #1, 2-(5-(1-(adamantan-1-ylmethyl)-5-methyl-1H-pyrazol-4-yl)-6-(((3-(4-((2-(2-((2-(2,6-dioxopiperidin-3-yl)-1,3-dioxoisoindolin-4-yl)amino)ethoxy)ethoxy)methyl)-1H-1,2,3-triazol-1-yl)propyl)sulfonyl)carbamoyl)pyridin-2-yl)-N-(benzo[d]thiazol-2-yl)-1,2,3,4-tetrahydroisoquinoline-8-carboxamide] | 0.01 to 0.1 µM | –
3 | Cc1c(-c2ccc(N3CCc4cccc(C(=O)Nc5nc6ccccc6s5)c4C3)nc2C(=O)NS(=O)(=O)CCCn2cc(COCCOCCNc3cccc4c3C(=O)N(C3CCC(=O)NC3=O)C4=O)nn2)cc(C#N)n1CC12CC3CC(CC(C3)C1)C2 (centres unmarked) [degrader #2, 2-(5-(1-(adamantan-1-ylmethyl)-5-cyano-2-methyl-1H-pyrrol-3-yl)-6-(((3-(4-((2-(2-((2-(2,6-dioxopiperidin-3-yl)-1,3-dioxoisoindolin-4-yl)amino)ethoxy)ethoxy)methyl)-1H-1,2,3-triazol-1-yl)propyl)sulfonyl)carbamoyl)pyridin-2-yl)-N-(benzo[d]thiazol-2-yl)-1,2,3,4-tetrahydroisoquinoline-8-carboxamide] | 0.01 to 0.1 µM | –
4 | Cc1c(-c2ccc(N3CCc4cccc(C(=O)Nc5nc6ccccc6s5)c4C3)nc2C(=O)NCCCCNc2cccc3c2C(=O)N(C2CCC(=O)NC2=O)C3=O)cnn1CC12CC3CC(CC(C3)C1)C2 (centres unmarked) [degrader #3, 2-(5-(1-(adamantan-1-ylmethyl)-5-methyl-1H-pyrazol-4-yl)-6-((4-((2-(2,6-dioxopiperidin-3-yl)-1,3-dioxoisoindolin-4-yl)amino)butyl)carbamoyl)pyridin-2-yl)-N-(benzo[d]thiazol-2-yl)-1,2,3,4-tetrahydroisoquinoline-8-carboxamide] | 0.1 to 1 µM | –
5 | Cc1c(-c2ccc(N3CCc4cccc(C(=O)Nc5nc6ccccc6s5)c4C3)nc2C(=O)NCCCCCCNc2cccc3c2C(=O)N(C2CCC(=O)NC2=O)C3=O)cnn1CC12CC3CC(CC(C3)C1)C2 (centres unmarked) [degrader #4, 2-(5-(1-(adamantan-1-ylmethyl)-5-methyl-1H-pyrazol-4-yl)-6-((6-((2-(2,6-dioxopiperidin-3-yl)-1,3-dioxoisoindolin-4-yl)amino)hexyl)carbamoyl)pyridin-2-yl)-N-(benzo[d]thiazol-2-yl)-1,2,3,4-tetrahydroisoquinoline-8-carboxamide] | 0.1 to 1 µM | –
6 | Cc1c(-c2ccc(N3CCc4cccc(C(=O)Nc5nc6ccccc6s5)c4C3)nc2C(=O)NCCCCCCCCNc2cccc3c2C(=O)N(C2CCC(=O)NC2=O)C3=O)cnn1CC12CC3CC(CC(C3)C1)C2 (centres unmarked) [degrader #5, 2-(5-(1-(adamantan-1-ylmethyl)-5-methyl-1H-pyrazol-4-yl)-6-((8-((2-(2,6-dioxopiperidin-3-yl)-1,3-dioxoisoindolin-4-yl)amino)octyl)carbamoyl)pyridin-2-yl)-N-(benzo[d]thiazol-2-yl)-1,2,3,4-tetrahydroisoquinoline-8-carboxamide] | 0.1 to 1 µM | –
7 | Cc1c(-c2ccc(N3CCc4cccc(C(=O)Nc5nc6ccccc6s5)c4C3)nc2C(=O)NCCOCCNc2cccc3c2C(=O)N(C2CCC(=O)NC2=O)C3=O)cnn1CC12CC3CC(CC(C3)C1)C2 (centres unmarked) [degrader #6, 2-(5-(1-(adamantan-1-ylmethyl)-5-methyl-1H-pyrazol-4-yl)-6-((2-(2-((2-(2,6-dioxopiperidin-3-yl)-1,3-dioxoisoindolin-4-yl)amino)ethoxy)ethyl)carbamoyl)pyridin-2-yl)-N-(benzo[d]thiazol-2-yl)-1,2,3,4-tetrahydroisoquinoline-8-carboxamide] | 0.01 to 0.1 µM | –
8 | Cc1c(-c2ccc(N3CCc4cccc(C(=O)Nc5nc6ccccc6s5)c4C3)nc2C(=O)NCCOCCOCCNc2cccc3c2C(=O)N(C2CCC(=O)NC2=O)C3=O)cnn1CC12CC3CC(CC(C3)C1)C2 (centres unmarked) [degrader #7, 2-(5-(1-(adamantan-1-ylmethyl)-5-methyl-1H-pyrazol-4-yl)-6-((2-(2-(2-((2-(2,6-dioxopiperidin-3-yl)-1,3-dioxoisoindolin-4-yl)amino)ethoxy)ethoxy)ethyl)carbamoyl)pyridin-2-yl)-N-(benzo[d]thiazol-2-yl)-1,2,3,4-tetrahydroisoquinoline-8-carboxamide] | 0.01 to 0.1 µM | –
9 | Cc1ncsc1-c1ccc([C@H](C)NC(=O)[C@@H]2C[C@@H](O)CN2C(=O)[C@@H](NC(=O)CCCS(=O)(=O)NC(=O)c2nc(N3CCc4cccc(C(=O)Nc5nc6ccccc6s5)c4C3)ccc2-c2cnn(CC34CC5CC(CC(C5)C3)C4)c2C)C(C)(C)C)cc1 [degrader #9, 2-(5-(1-(adamantan-1-ylmethyl)-5-methyl-1H-pyrazol-4-yl)-6-(((4-(((S)-1-((2S,4R)-4-hydroxy-2-(((S)-1-(4-(4-methylthiazol-5-yl)phenyl)ethyl)carbamoyl)pyrrolidin-1-yl)-3,3-dimethyl-1-oxobutan-2-yl)amino)-4-oxobutyl)sulfonyl)carbamoyl)pyridin-2-yl)-N-(benzo[d]thiazol-2-yl)-1,2,3,4-tetrahydroisoquinoline-8-carboxamide] | < 0.01 µM | –
10 | Cc1ncsc1-c1ccc([C@H](C)NC(=O)[C@@H]2C[C@@H](O)CN2C(=O)[C@@H](NC(=O)CCCCS(=O)(=O)NC(=O)c2nc(N3CCc4cccc(C(=O)Nc5nc6ccccc6s5)c4C3)ccc2-c2cnn(CC34CC5CC(CC(C5)C3)C4)c2C)C(C)(C)C)cc1 [degrader #10, 2-(5-(1-(adamantan-1-ylmethyl)-5-methyl-1H-pyrazol-4-yl)-6-(((5-(((S)-1-((2S,4R)-4-hydroxy-2-(((S)-1-(4-(4-methylthiazol-5-yl)phenyl)ethyl)carbamoyl)pyrrolidin-1-yl)-3,3-dimethyl-1-oxobutan-2-yl)amino)-5-oxopentyl)sulfonyl)carbamoyl)pyridin-2-yl)-N-(benzo[d]thiazol-2-yl)-1,2,3,4-tetrahydroisoquinoline-8-carboxamide] | < 0.01 µM | –
11 | Cc1ncsc1-c1ccc([C@H](C)NC(=O)[C@@H]2C[C@@H](O)CN2C(=O)[C@@H](NC(=O)CCCCCS(=O)(=O)NC(=O)c2nc(N3CCc4cccc(C(=O)Nc5nc6ccccc6s5)c4C3)ccc2-c2cnn(CC34CC5CC(CC(C5)C3)C4)c2C)C(C)(C)C)cc1 [degrader #11, 2-(5-(1-(adamantan-1-ylmethyl)-5-methyl-1H-pyrazol-4-yl)-6-(((6-(((S)-1-((2S,4R)-4-hydroxy-2-(((S)-1-(4-(4-methylthiazol-5-yl)phenyl)ethyl)carbamoyl)pyrrolidin-1-yl)-3,3-dimethyl-1-oxobutan-2-yl)amino)-6-oxohexyl)sulfonyl)carbamoyl)pyridin-2-yl)-N-(benzo[d]thiazol-2-yl)-1,2,3,4-tetrahydroisoquinoline-8-carboxamide] | < 0.01 µM | –
12 | Cc1ncsc1-c1ccc([C@H](C)NC(=O)[C@@H]2C[C@@H](O)CN2C(=O)[C@@H](NC(=O)CCCCCCS(=O)(=O)NC(=O)c2nc(N3CCc4cccc(C(=O)Nc5nc6ccccc6s5)c4C3)ccc2-c2cnn(CC34CC5CC(CC(C5)C3)C4)c2C)C(C)(C)C)cc1 [degrader #12, 2-(5-(1-(adamantan-1-ylmethyl)-5-methvl-1H-pyrazol-4-yl)-6-(((7-(((S)-1-((2S,4R)-4-hydroxy-2-(((S)-1-(4-(4-methylthiazol-5-yl)phenyl)ethyl)carbamoyl)pyrrolidin-1-yl)-3,3-dimethyl-1-oxobutan-2-yl)amino)-7-oxoheptyl)sulfonyl)carbamol)pyridin-2-yl)-N-(benzo[d]thiazol-2-yl)-1,2,3,4-tetrahydroisoquinoline-8-carboxamide] | – | < 0.01 µM
13 | Cc1ncsc1-c1ccc([C@H](C)NC(=O)[C@@H]2C[C@@H](O)CN2C(=O)[C@@H](NC(=O)CCCCCCCS(=O)(=O)NC(=O)c2nc(N3CCc4cccc(C(=O)Nc5nc6ccccc6s5)c4C3)ccc2-c2cnn(CC34CC5CC(CC(C5)C3)C4)c2C)C(C)(C)C)cc1 [degrader #13, 2-(5-(1-(adamantan-1-ylmethyl)-5-methyl-1H-pyrazol-4-yl)-6-(((8-(((S)-1-((2S,4R)-4-hydroxy-2-(((S)-1-(4-(4-methylthiazol-5-yl)phenyl)ethyl)carbamoyl)pyrrolidin-1-yl)-3,3-dimethyl-1-oxobutan-2-yl)amino)-8-oxooctyl)sulfonyl)carbamoyl)pyridin-2-yl)-N-(benzo[d]thiazol-2-yl)-1,2,3,4-tetrahydroisoquinoline-8-carboxamide] | < 0.01 µM | –
14 | Cc1ncsc1-c1ccc([C@H](C)NC(=O)[C@@H]2C[C@@H](O)CN2C(=O)[C@@H](NC(=O)CCCCCCCCS(=O)(=O)NC(=O)c2nc(N3CCc4cccc(C(=O)Nc5nc6ccccc6s5)c4C3)ccc2-c2cnn(CC34CC5CC(CC(C5)C3)C4)c2C)C(C)(C)C)cc1 [degrader #14, 2-(5-(1-(adamantan-1-ylmethyl)-5-methyl-1H-pyrazol-4-yl)-6-(((9-(((S)-1-((2S,4R)-4-hydroxy-2-(((S)-1-(4-(4-methylthiazol-5-yl)phenyl)ethyl)carbamoyl)pyrrolidin-1-yl)-3,3-dimethyl-1-oxobutan-2-yl)amino)-9-oxononyl)sulfonyl)carbamoyl)pyridin-2-yl)-N-(benzo[d]thiazol-2-yl)-1,2,3,4-tetrahydroisoquinoline-8-carboxamide] | < 0.01 µM | –

From patent US12441722B2, “Therapeutic agents and methods of treatment” (University of Florida Research Foundation, Incorporated, priority 2020, dated 2025)
